The source made the active and inactive calls.
Experiments:
Adipocyte [1] = experiment: Potentiation of CL-316243-stimulated mouse Brown adipocyte activation assessed as increase in Ucp1 expression at 4 uM pretreated with compound for 9 hr followed by CL-316243 induction and measured after 8 hrs by qRT-PCR analysis; format: functional, cell-based; conditions: time 17.0 hrs
[2] = Effect on Pparg2 mRNA level in mouse Adipocyte by qRT-PCR analysis; format: functional
[3] = Effect on Pparg1 mRNA level in mouse Adipocyte by qRT-PCR analysis; format: functional
[4] = Downregulation of C/EBPdelta protein expression level in mouse Adipocyte by Western blot analysis; format: functional
[5] = Inhibition of adipogenic differentiation in C57BL/6J mouse brown Preadipocyte assessed as reduction in neutral lipid content at 4 uM by Oil Red O staining based light microscopy; format: functional
Adipocyte [6] = experiment: Potentiation of CL-316243-stimulated mouse Brown adipocyte activation assessed as increase in PPARA mRNA expression at 4 uM pretreated with compound for 9 hr followed by CL-316243 induction and measured after 8 hrs by qRT-PCR analysis; format: functional, cell-based; conditions: time 17.0 hrs
Adipocyte [7] = experiment: Potentiation of CL-316243-stimulated mouse Brown adipocyte activation assessed as increase in CIDEA mRNA expression at 4 uM pretreated with compound for 9 hr followed by CL-316243 induction and measured after 8 hrs by qRT-PCR analysis; format: functional, cell-based; conditions: time 17.0 hrs
Adipocyte [8] = experiment: Potentiation of CL-316243-stimulated mouse Brown adipocyte activation assessed as increase in CPT2 mRNA expression at 4 uM pretreated with compound for 9 hr followed by CL-316243 induction and measured after 8 hrs by qRT-PCR analysis; format: functional, cell-based; conditions: time 17.0 hrs
[9] = Effect on CEBPB mRNA level in mouse Adipocyte by qRT-PCR analysis; format: functional
[10] = Cytotoxicity against C57BL6/J mouse brown Preadipocyte assessed as decrease in cell viability > 8 uM measured for 24 hrs by trypan blue staining based hemocytometer analysis; format: toxicity
Adipocyte [11] = experiment: Potentiation of CL-316243-stimulated mouse Brown adipocyte activation assessed as increase in CPT1a mRNA expression at 4 uM pretreated with compound for 9 hr followed by CL-316243 induction and measured after 8 hrs by qRT-PCR analysis; format: functional, cell-based; conditions: time 17.0 hrs
Adipocyte [12] = experiment: Downregulation of C/EBPalpha protein expression level in mouse Adipocyte by Western blot analysis; format: functional, cell-based
Adipocyte [13] = experiment: Potentiation of CL-316243-stimulated mouse Brown adipocyte activation assessed as increase in ELVOL6 mRNA expression at 4 uM pretreated with compound for 9 hr followed by CL-316243 induction and measured after 8 hrs by qRT-PCR analysis; format: functional, cell-based; conditions: time 17.0 hrs
Adipocyte [14] = experiment: Potentiation of CL-316243-stimulated mouse Brown adipocyte activation assessed as increase in CTP1B mRNA expression at 4 uM pretreated with compound for 9 hr followed by CL-316243 induction and measured after 8 hrs by qRT-PCR analysis; format: functional, cell-based; conditions: time 17.0 hrs
[15] = Effect on CEBPA mRNA level in mouse Adipocyte by qRT-PCR analysis; format: functional
Adipocyte [16] = experiment: Downregulation of C/EBPdelta protein expression level in mouse brown Adipocyte by Western blot analysis; format: functional, cell-based
Adipocyte [17] = experiment: Downregulation of C/EBPbeta protein expression level in mouse Adipocyte by Western blot analysis; format: functional, cell-based
Adipocyte [18] = experiment: Potentiation of CL-316243-stimulated mouse Brown adipocyte activation assessed as increase in ELOVL3 mRNA expression at 4 uM pretreated with compound for 9 hr followed by CL-316243 induction and measured after 8 hrs by qRT-PCR analysis; format: functional, cell-based; conditions: time 17.0 hrs
[19] = Effect on CD36 mRNA level in mouse Adipocyte by qRT-PCR analysis; format: functional
Adipocyte [20] = experiment: Potentiation of CL-316243-stimulated mouse Brown adipocyte activation assessed as increase in FGF21 mRNA expression at 4 uM pretreated with compound for 9 hr followed by CL-316243 induction and measured after 8 hrs by qRT-PCR analysis; format: functional, cell-based; conditions: time 17.0 hrs
Adipocyte [21] = experiment: Effect on C/EBPdelta mRNA level in mouse brown Adipocyte by qRT-PCR analysis; format: functional, cell-based
[22] = Cytotoxicity against C57BL6/J mouse brown Preadipocyte assessed as decrease in cell viability at 4 uM measured for 24 hrs by trypan blue staining based hemocytometer analysis; format: toxicity

COc1c(C)c(O)c2c(=O)c(OC)c(-c3ccc(O)cc3)oc2c1OC
54.8%: inhibition at 4 µM [5]
31.93%: Activity [4]
inactive: Activity (Adipocyte [1]) | Activity (Adipocyte [6]) | Activity (Adipocyte [7]) | Activity (Adipocyte [8]) | Activity (Adipocyte [11]) | Activity (Adipocyte [12]) | Activity (Adipocyte [13]) | Activity (Adipocyte [14]) | Activity (Adipocyte [17]) | Activity (Adipocyte [18]) | Activity (Adipocyte [20])
Non-Toxic: Activity [10] | Activity [22]
50.3%: Activity [2] | Activity [3] | Activity [9] | Activity [15]
active: Activity (Adipocyte [16]) | Activity (Adipocyte [21])
24.18%: Activity [19]

Reference: ChEMBL document CHEMBL5357004 (J Nat Prod, 2024)
